Experimental data: patent US12559504B2, “Benzotriazole derivative” (UBE CORPORATION, priority 2019, dated 2026)

Experiments:
[1] = biological target: T1, GST fusion human Keap1 (amino acid residue: 325-624) protein (Homo sapiens, UniProt Q14145); assay: Keap1-Nrf2 binding inhibition test (fluorescence polarization); conditions: compound concentration of 100 nM; read-out: inhibition rate
T1 construct: GST fusion human Keap1 (amino acid residue: 325-624) protein; purchased Protein tech Ag0779
Experimental: The inhibitory activity of each test compound on the binding between Nrf2 and Keap1 was measured by the fluorescence polarization method. A solution consisting of 20 mM tris-hydrochloride pH7.5 (NIPPON GENE CO., LTD., REF: 318-90225), 150 mM NaCl [FUJIFILM Wako Pure Chemical. Corporation, REF: 191-01665], 0.05% Tween 20 (BioRAD, REF: 161-0781), and 5 mM DTT (FUJIFILM Wako Pure Chemical Corporation, REF: 049-08972) was used as a buffer solution. To a test compound solution (70 μL) adjusted to each concentration with 10% DMSO (FUJIFILM Wako Pure Chemical Corporation, REF: 043-07216) was added a buffer solution (350 μL) comprising 6 nM FITC-labeled Nrf2 peptide (FITC-Ahx-LDEETGEFL-NH2, Invitrogen) and 0.2 mg/mL of BSA (FUJIFILM Wako Pure Chemical Corporation, REF: 017-22231). Each 120 μL of the resulting mixture was dispensed into a black 96 well plate, and a buffer solution (80 μL) comprising 2.5 nM GST fusion human Keap1 (amino acid residue: 325-624) protein (Protein tech, REF: Ag0779) was added thereto. A Keap1-free buffer solution was added to some wells to prepare negative controls. Meanwhile, compound-free wells were used as positive controls. The plate was incubated at room temperature for 30 minutes, and each fluorescence polarization at excitation wavelength of 482 nm and fluorescence wavelength of 530 nm was measured by using a plate reader Clariostar (BMG Labtech). The fluorescence polarization of the negative control was set to be 100% inhibition, fluorescence polarization of the positive control was set to be 0% inhibition, and the inhibition rate of each test compound at 100 nM was calculated by using the following equation. Inhibition rate (%)=100−((Fluorescence polarization when test compound was added−Fluorescence polarization of negative control)/(Fluorescence polarization of positive control−Fluorescence polarization of negative control))×100

[2] = test system: NQO1; assay: NQO1 expression induction test in mouse kidney (single administration); assay type: in vivo; conditions: Mus musculus, po, 6 h, BALB/c mouse kidney, 6 hours after administration, ratio to control group
Experimental: Each test compound solution for administration was prepared by dissolving or suspending each test compound into a 0.5 w/v % aqueous solution of methylcellulose (0.5% MC) (manufactured by Wako Pure Chemical Industries, Ltd.).
Each prepared test compound was orally administered to a BALB/c mouse (female, provided by Charles River Laboratories Japan, Inc.). Non-treated group was used as a control group. After 6 hours from the administration, each mouse was anesthetized with isoflurane, and euthanized with bloodletting by incising a lower aorta. Immediately, the left kidney was excised, cut into small pieces, and then the cut kidney pieces were transferred to RNA later (Thermo Fisher Scientific).
Then, mRNA was extracted from the collected kidney pieces by using NucleoSpin (registered trademark) RNA Kit (Takara Bio Inc.), each concentration was quantified by FlexStation3 (Molecular Devices), and then the concentration was adjusted to a constant concentration. A reverse transcription synthesis of cDNA was carried out from the mRNA with the constant concentration by using PrimeScript™ RT reagent Kit with gDNA Eraser and PCR Thermal Cycler (Takara Bio Inc.). Then, in addition to the resulting cDNA, SYBR (registered trademark) Premix Ex Taq™ II and NQO1, GAPDH primer (Takara Bio Inc.) were used to carry out Real-time PCR by PCR Thermal Cycler Dice Real time (Takara Bio Inc.), and the NQO1 expression was quantified by using the GAPDH expression as the reference.
In order to evaluate the NQO1 expression induction in each group, the NQO1 expression induction ratio was calculated by using the following equation. (NQO1 expression induction ratio)=(Average NQO1 expression in test compound administered group)[…](Average NQO1 expression in control group)

[3] = test system: NQO1; assay: NQO1 enzyme induction test (in vitro) in Hepa1c1c7 cells; assay type: cell-based; conditions: Mus musculus, Hepa-1c1c7, 48 h, concentration to elevate the NQO1 activity by 1.5 times, about 48 hours, read-out: EC150
Experimental: Each NQO1 assay was carried out by modifying a known method (Anal Biochem 1998; 169: 328-, Methods Enzymol 2004; 382: 243-). Hepa1c1c7 cells (mouse hepatocyte line manufacture by DS Pharma Biomedical Co., Ltd., REF. No. 95090613) were cultured (5% CO2, 37° C.). The cells were cultured in MEMα (manufactured by FUJIFILM Wako Pure Chemical Corporation, REF. 135-15175) medium comprising 10% FBS (manufactured by GIBCO, REF. 10082) and […]/streptomycin/amphotericin B (manufactured by GIBCO, REF. 15240), and dispensed into a 96 well plate (manufactured by Costar, REF. 3610) at 2.0×10^3 cells/well. On the next day, test compound (final concentration of […]: 0.1%) dissolved into DMSO (manufactured by FUJIFILM Wako Pure Chemical Corporation, REF. 043-07216) was added to each well, and the plate was further cultured for about 48 hours.
A cell lysate manufactured by Cell signaling Technology, Inc. (REF. 9803) with the addition of a Protease Inhibitor manufactured by Roche Diagnostics K.K. (REF. 11-873580001) was used. A reaction solution (which is a solution comprising trishydrochloric acid (25 mM), albumin […], Tween-20 (0.01%), glucose-6-phosphate dehydrogenase (2 U/mL), flavin-adenine dinucleotide (5 μM), glucose-6-phosphate (1 μM), nicotinamide adenine dinucleotide phosphate (30 μM), 3-(4,5-dimethyl-2-thiazolyl)-2,5-diphenyltetrazolium bromide (MTT) (0.03%), and menadione (50 μM)), and a stop solution (which is a solution comprising dicumarol (0.3 mM) and potassium dihydrogen phosphate (5 mM), pH 7.4) were prepared. After the medium was removed, cell lysate (50 μL) was added thereto, and the resulting mixture was shaken at room temperature for 20 minutes. The reaction solution (200 μL) was added thereto, and the resulting mixture was left to stand at room temperature for 5 minutes. The stop solution (50 μL) was added thereto, and absorbance at 540 nm (reference 750 nm) was measured.
Cell number was measured by Cell Titer Glo assay (manufactured by Promega Corporation, REF. G9242) by using another plate prepared according to the same conditions as those described above, and correction of absorbance was carried out. The test result was analyzed by Excel, and the EC150 value which is the concentration to elevate the NQO1 activity by 1.5 times was calculated.

[4] = Metabolism test using human liver microsome fractions; assay type: in vitro ADME; conditions: human liver microsomes, test compound 10 μmol/L, NADPH and UDP-glucuronic acid, 37° C.
Experimental: A reaction composition solution (comprising NADPH Regenerating System, Solution A (manufactured by Corning Inc., REF. 451220) (50 μL), NADPH Regenerating System, Solution B (manufactured by Corning Inc., REF. 451200) (10 μL), 250 mM UDP-glucuronic acid (40 μL), UGT Reaction Mix Solution B (manufactured by Corning Inc., REF. 451320) (200 μL), and distilled water (640 μL)) in which human liver microsomes (manufactured by Xenotech, Cat. No. H610) or monkey liver microsomes (manufactured by Xenotech, Cat. No. P2000) (corresponding to 1 mg of protein) were suspended was prepared. After the solution was incubated at 37° C. for 5 minutes, each test compound dissolved into DMSO (manufactured by FUJIFILM Wako Pure Chemical Corporation, Code No. 043-07216) was added to the solution so that the final concentration was set to be 10 μmol/L, and a reaction was initiated. After 0, 5, 10, 15, 20, and 30 minute(s) from the initiation of the metabolism reaction, 100 μL of the reaction solution was taken out of the reaction system, and added to 200 μL of acetonitrile to stop the reaction. After the reaction was completed, the reaction solution was subjected to a work-up such as deproteinization, and then subjected to an UV-HPLC analysis to carry out the following analysis.
The peak area of each test compound was calculated by LabSolution software (Shimadzu Corporation), and the residual ratio (%) at each culture time of test material was calculated by the following equation. Residual ratio (%)=Peak area at each culture time[…]Peak area at 0 (initial time)
Next, the residual amount (nmol/mg/mL) at each culture time of test material was calculated by the following equation. Residual amount (nmol/mg/mL)=Initial concentration of reaction solution (10 nmol/mg/mL)×residual ratio÷100
Finally, a graph in which the reaction time was plotted at horizontal axis and the residual amount was plotted at longitudinal axis was prepared on Excel, and the inclination was calculated as the elimination rate (pmol/min/mg-P) within the time range in which the graph was deemed linear.

T1 sequence (Q14145 325-624): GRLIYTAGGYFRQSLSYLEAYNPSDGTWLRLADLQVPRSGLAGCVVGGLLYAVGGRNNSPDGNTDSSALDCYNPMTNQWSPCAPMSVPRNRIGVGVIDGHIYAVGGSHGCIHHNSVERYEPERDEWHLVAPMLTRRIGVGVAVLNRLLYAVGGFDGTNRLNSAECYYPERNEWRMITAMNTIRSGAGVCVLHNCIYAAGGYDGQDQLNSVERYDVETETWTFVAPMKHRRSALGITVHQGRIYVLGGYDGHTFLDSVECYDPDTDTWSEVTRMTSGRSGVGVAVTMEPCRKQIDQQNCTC

| SMILES | inhibition at 0.1 µM [1] [%] | fold induction at 30 mg/kg [2] | EC (1.5-fold NQO1 activity) [3] [µM] | Human metabolic rate [4] | fold induction at 20 mg/kg ([2]; Dose 20 mg/kg) |
| --- | --- | --- | --- | --- | --- |
| CC[C@@H]1CN(Cc2cc(C(c3ccc4c(nnn4C)c3C)C(C)(C)C(=O)O)ccc2C)Cc2cc3cc(C)ccc3nc2O1 (stereo partly drawn) [Example 14-(b), 3-(1,4-dimethyl-1H-benzo[d][1,2,3]triazol-5-yl)-3-(3-(((R)-2-ethyl-8-methyl-2,3-dihydro-[1,4]oxazepino[7,6-b]quinolin-4 (5H)-yl)methyl)-4-methylphenyl)-2,2-dimethylpropanoic Acid] | ≥ 50 | > 6 | 0.0005 to 0.005 |  |  |
| CC[C@@H]1CN(Cc2cc(C(c3ccc4c(nnn4C)c3C)C3(C(=O)O)CCCC3)ccc2C)Cc2cc3ncccc3cc2O1 (stereo partly drawn) [Example 83-(b), 1-((1,4-dimethyl-1H-benzo[d][1,2,3]triazol-5-yl) (3-(((R)-2-ethyl-2,3-dihydro-[1,4]oxazepino[7,6-g]quinolin-4 (5H)-yl)methyl)-4-methylphenyl)methyl)cyclopentane-1-carboxylic Acid] |  |  | 0.005 to 0.05 | C (150≤metabolic rate<200 pmol/min/mg protein) | > 6 |
| CC[C@@H]1CN(Cc2cc(C(c3ccc4c(nnn4C)c3C)C(C)(C)C(=O)O)ccc2C)Cc2ccc3ccccc3c2O1 (stereo partly drawn) [Example 24-(b), 3-(1,4-dimethyl-1H-benzo[d][1,2,3]triazol-5-yl)-3-(3-(((R)-2-ethyl-2,3-dihydronaphtho[2,1-f][1,4]oxazepin-4(5H)-yl)methyl)-4-methylphenyl)-2,2-dimethylpropanoic Acid] | ≥ 50 | > 6 | 0.005 to 0.05 |  |  |
| CC[C@@H]1CN(Cc2cc(C(c3ccc4c(nnn4C)c3C)C(C)(C)C(=O)O)ccc2C)Cc2ccc3cccnc3c2O1 (stereo partly drawn) [Example 27-(b), 3-(1,4-dimethyl-1H-benzo[d][1,2,3]triazol-5-yl)-3-(3-(((R)-2-ethyl-2,3-dihydro-[1,4]oxazepino[6,7-h]quinolin-4 (5H)-yl)methyl)-4-methylphenyl)-2,2-dimethylpropanoic Acid] | ≥ 50 | ≤ 3 | 0.005 to 0.05 |  |  |
| CC[C@@H]1CN(Cc2cc(C(c3ccc4c(nnn4C)c3C)C(C)(C)C(=O)O)ccc2C)Cc2c(ccc3cn[nH]c23)O1 (stereo partly drawn) [Example 20-(b), 3-(1,4-dimethyl-1H-benzo[d][1,2, 3]triazol-5-yl)-3-(3-(((R)-7-ethyl-1,7,8,10-tetrahydro-9H-[1,4]oxazepino[7,6-g]indazol-9-yl)methyl)-4-methylphenyl)-2,2-dimethylpropanoic Acid] | ≥ 50 |  | 0.0005 to 0.005 | D (200≤metabolic rate<250 pmol/min/me protein) |  |

More lines, main results first:

| inhibition at 0.1 µM [1] [%] | SMILES | fold induction at 30 mg/kg [2] | EC (1.5-fold NQO1 activity) [3] [µM] | Human metabolic rate [4] | fold induction at 20 mg/kg ([2]; Dose 20 mg/kg) |
| --- | --- | --- | --- | --- | --- |
| ≥ 50 | CC[C@@H]1CN(Cc2cc(C(c3ccc4c(nnn4C)c3C)C(C)(C)C(=O)O)ccc2C)Cc2ccc3ccncc3c2O1 (stereo partly drawn) [Example 62, 3-(1,4-dimethyl-1H-benzo[d][1,2,3]triazol-5-yl)-3-(3-(((R)-2-ethyl-2,3-dihydro-[1,4]oxazepino[6,7-h]isoquinolin-4 (5H)-yl)methyl)-4-methylphenyl)-2,2-dimethylpropanoic Acid] | ≤ 3 | 0.0005 to 0.005 |  |  |
| ≥ 50 | CC[C@@H]1CN(Cc2cc(C(c3ccc4c(nnn4C)c3C)C(C)(C)C(=O)O)ccc2C)Cc2ccc3ncccc3c2O1 (stereo partly drawn) [Example 28-(b), 3-(1,4-dimethyl-1H-benzo[d][1,2,3]triazol-5-yl)-3-(3-(((R)-2-ethyl-2,3-dihydro-[1,4]oxazepino[7,6-f]quinolin-4(5H)-yl)methyl)-4-methylphenyl)-2,2-dimethylpropanoic Acid] | 3 to 6 | 0.0005 to 0.005 |  |  |
| ≥ 50 | Cc1ccc(C(c2ccc3c(nnn3C)c2C)C(C)(C)C(=O)O)cc1CN1Cc2cc3ncccc3cc2OC2(CC2)C1 (single isomer, unassigned) [Example 85, 3-(3-((3′H-spiro[cyclopropane-1,2′-[1,4]oxazepino[7,6-g]quinoline]-4′(5′H)-yl)methyl)-4-methylphenyl)-3-(1,4-dimethyl-1H-benzo[d][1,2,3]triazol-5-yl)-2,2-dimethylpropanoic Acid] |  | 0.0005 to 0.005 | A (metabolic rate<100 pmol/min/mg protein) |  |
